# Source: ChEMBL document CHEMBL1201862, “PubChem BioAssay data set” (2004)
#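 Growth conditions: 96-well plates. Treatment: test compound, 48 hours, 5 concentrations. Analysis: linear interpolation between bracketing concentrations; unreached endpoints set to highest concentration. The concentration for 50% growth inhibition is given as GI50.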 Active and inactive are the calls of the source. No stated cut-off is given here; in the data, active = GI50 up to about 1.1 µM and inactive = higher.
# Key:
# Assay in all cases: growth of human tumour cells (NCI), 48 h
# NCI-H460 = test system: NCI-H460
# CAKI-1 = test system: CAKI-1
# SF-295 = test system: SF-295
# OVCAR-8 = test system: OVCAR-8
# NCI-H23 = test system: NCI-H23
# A549 = test system: A549
# UACC-257 = test system: UACC-257
# K562 = test system: K562
# SN12C = test system: SN12C
# HCT-15 = test system: HCT-15
# SNB-75 = test system: SNB-75
# HL-60 = test system: HL-60
# SK-MEL-5 = test system: SK-MEL-5
# RPMI-8226 = test system: RPMI-8226
# EKVX = test system: EKVX
Compound,GI50 (NCI-H460),GI50 (CAKI-1),GI50 (SF-295),GI50 (OVCAR-8),GI50 (NCI-H23),GI50 (A549),GI50 (UACC-257),GI50 (K562),GI50 (SN12C),GI50 (HCT-15),GI50 (SNB-75),GI50 (HL-60),GI50 (SK-MEL-5),GI50 (RPMI-8226),GI50 (EKVX)
NC(=S)NNc1c([N+](=O)[O-])cnn(-c2ccccc2)c1=O,17.9 µM (inactive),19.6 µM (inactive),15.1 µM (inactive),14.5 µM (inactive),19 µM (inactive),23 µM (inactive),22.9 µM (inactive),4.36 µM (inactive),17.1 µM (inactive),17.3 µM,19.4 µM (inactive),4.62 µM (inactive),18.7 µM (inactive),20.7 µM (inactive),–
Clc1cc2nc[nH]c2cc1Cl,> 100 µM (inactive),> 100 µM (inactive),> 100 µM (inactive),> 100 µM (inactive),> 100 µM (inactive),> 100 µM (inactive),–,> 100 µM (inactive),> 100 µM (inactive),> 100 µM,18.3 µM (inactive),> 100 µM (inactive),–,> 100 µM (inactive),> 100 µM (inactive)
CCO/S(=N/S(=O)(=O)c1ccccc1)c1ccccc1[N+](=O)[O-] (stereo not drawn),> 100 µM (inactive),> 100 µM (inactive),> 100 µM (inactive),> 100 µM (inactive),> 100 µM (inactive),> 100 µM (inactive),> 100 µM (inactive),> 100 µM (inactive),> 100 µM (inactive),> 100 µM,> 100 µM (inactive),–,> 100 µM (inactive),> 100 µM (inactive),> 100 µM (inactive)
CC(C)(C)C(=O)C(c1ccc(-c2cscn2)cc1)c1ccc(-c2cscn2)cc1,40.5 µM (inactive),33.4 µM (inactive),18.1 µM (inactive),16.7 µM (inactive),30.5 µM (inactive),29.6 µM (inactive),76 µM (inactive),> 92.9 µM (inactive),34.7 µM (inactive),> 95.1 µM,6.25 µM (inactive),> 100 µM (inactive),38.1 µM (inactive),32.1 µM (inactive),33.3 µM (inactive)
CC1(C)COC(C2(C)C(=O)C=C(c3ccccc3)c3ccccc32)=N1 (stereo not drawn),36.9 µM (inactive),42.6 µM (inactive),37.9 µM (inactive),46.8 µM (inactive),47.1 µM (inactive),33.3 µM (inactive),31.4 µM (inactive),33.3 µM (inactive),30.5 µM (inactive),27.4 µM,33.4 µM (inactive),27 µM (inactive),> 100 µM (inactive),34.9 µM (inactive),45.4 µM (inactive)
Cc1ccc(NC(=O)CC2Sc3ccccc3NC2=O)c(C)c1 (stereo not drawn),11.4 µM (inactive),21.5 µM (inactive),16.2 µM (inactive),18.5 µM (inactive),16.2 µM (inactive),16 µM (inactive),2.59 µM (inactive),4.01 µM (inactive),38.2 µM (inactive),–,4.52 µM (inactive),2.73 µM (inactive),6.97 µM (inactive),12.8 µM (inactive),46.7 µM (inactive)
CCN(CC)CC(C(=O)Nc1c(C)cccc1C)/C(C)=N\NC(=S)NN (stereo not drawn),> 100 µM (inactive),–,> 100 µM (inactive),> 100 µM (inactive),> 100 µM (inactive),> 100 µM (inactive),> 100 µM (inactive),> 100 µM (inactive),–,–,> 100 µM (inactive),> 100 µM (inactive),> 100 µM (inactive),> 100 µM (inactive),> 100 µM (inactive)
CCOC(=O)NC(=O)c1cn(C2CCCCC2)c(=O)[nH]c1=O,32.2 µM (inactive),> 100 µM (inactive),94 µM (inactive),> 100 µM (inactive),> 100 µM (inactive),58.7 µM (inactive),> 100 µM (inactive),4.9 µM (inactive),> 100 µM (inactive),53.8 µM,–,7.53 µM (inactive),–,63.5 µM (inactive),> 100 µM (inactive)
CS/C(=N\c1nccs1)NC(=O)c1cccc(Cl)c1,> 100 µM (inactive),50.5 µM (inactive),77.8 µM (inactive),> 100 µM (inactive),> 100 µM (inactive),> 100 µM (inactive),> 100 µM (inactive),> 100 µM (inactive),79.4 µM (inactive),24.9 µM,49.5 µM (inactive),56.8 µM (inactive),> 100 µM (inactive),97.7 µM (inactive),19 µM (inactive)
CC1=CP(=O)(c2ccccc2)C=C(C)C1=C(Cl)Cl (stereo not drawn),3.35 µM (inactive),–,5.38 µM (inactive),10.9 µM (inactive),17.4 µM (inactive),6.24 µM (inactive),–,3.21 µM (inactive),15.6 µM (inactive),–,4.83 µM (inactive),2.12 µM (inactive),4.67 µM (inactive),2.5 µM (inactive),–
NC(CCSCC(F)F)C(=O)O (stereo not drawn),> 100 µM (inactive),> 100 µM (inactive),> 100 µM (inactive),> 100 µM (inactive),> 100 µM (inactive),> 100 µM (inactive),> 100 µM (inactive),> 100 µM (inactive),> 100 µM (inactive),> 100 µM,> 100 µM (inactive),> 100 µM (inactive),> 100 µM (inactive),–,> 100 µM (inactive)
CCOC(=O)C(=O)Nc1nc2ccc(OC)cc2s1,> 100 µM (inactive),> 100 µM (inactive),> 100 µM (inactive),> 100 µM (inactive),> 100 µM (inactive),> 100 µM (inactive),> 100 µM (inactive),> 100 µM (inactive),> 100 µM (inactive),> 100 µM,> 100 µM (inactive),> 100 µM (inactive),> 100 µM (inactive),> 100 µM (inactive),> 100 µM (inactive)
O=C1C2Nc3ccccc3SC2C(=O)N1c1ccc(Br)cc1 (stereo not drawn),47 µM (inactive),–,26.6 µM (inactive),37.4 µM (inactive),36.5 µM (inactive),31.6 µM (inactive),26.5 µM (inactive),21.9 µM (inactive),35.9 µM (inactive),78.7 µM,24.5 µM (inactive),> 10 µM (inactive),16.2 µM (inactive),13.1 µM (inactive),23.4 µM (inactive)
COc1cc(O)c2c(c1)O[C@@H]1OCC[C@H]21,> 100 µM (inactive),–,> 100 µM (inactive),> 100 µM (inactive),> 100 µM (inactive),> 100 µM (inactive),> 100 µM (inactive),> 100 µM (inactive),> 100 µM (inactive),> 100 µM,> 100 µM (inactive),> 100 µM (inactive),> 100 µM (inactive),> 100 µM (inactive),> 100 µM (inactive)
COc1cc([C@@H]2c3cc4c(cc3[C@@H](NC(=O)c3cccc(F)c3)C3COC(=O)[C@@H]32)OCO4)cc(OC)c1O (stereo partly drawn),< 0.01 µM (active),0.646 µM (active),0.412 µM (active),1.76 µM (inactive),0.522 µM (active),0.0327 µM (active),7.19 µM (inactive),1.61 µM (inactive),0.314 µM (active),1.45 µM,1.23 µM (inactive),0.111 µM (active),1.14 µM (inactive),0.466 µM (active),2.1 µM (inactive)
c1c[nH]c(Cc2nc(Cc3c[nH]cn3)c[nH]2)n1,24 µM (inactive),27.9 µM (inactive),35.6 µM (inactive),33.5 µM (inactive),34.8 µM (inactive),3.96 µM (inactive),–,3.37 µM (inactive),29.6 µM (inactive),4.58 µM,35.6 µM (inactive),3.66 µM (inactive),20.7 µM (inactive),10.1 µM (inactive),4.49 µM (inactive)
CC(C)(C)C1CCP(=O)(c2ccccc2)CC1 (stereo not drawn),> 100 µM (inactive),–,> 100 µM (inactive),> 100 µM (inactive),> 100 µM (inactive),> 100 µM (inactive),> 100 µM (inactive),> 100 µM (inactive),> 100 µM (inactive),> 100 µM,> 100 µM (inactive),> 100 µM (inactive),> 100 µM (inactive),> 100 µM (inactive),> 100 µM (inactive)
COc1cc2c[n+]3ccc4cc(OC)c(OC)cc4c3cc2cc1O,> 100 µM (inactive),–,> 100 µM (inactive),> 100 µM (inactive),> 100 µM (inactive),> 100 µM (inactive),> 100 µM (inactive),> 100 µM (inactive),> 100 µM (inactive),> 100 µM,> 100 µM (inactive),> 100 µM (inactive),> 100 µM (inactive),> 100 µM (inactive),> 100 µM (inactive)
COc1cc2c(cc1OC)-c1c(cc(OC)c(OC)c1OC)C2=O,> 100 µM (inactive),–,> 100 µM (inactive),> 100 µM (inactive),> 100 µM (inactive),> 100 µM (inactive),> 100 µM (inactive),> 100 µM (inactive),> 100 µM (inactive),> 100 µM,18.2 µM (inactive),98.6 µM (inactive),77.1 µM (inactive),> 100 µM (inactive),> 100 µM (inactive)
CC1CCCc2c1c1ccc3c(O)cccc3c1oc2=O (stereo not drawn),> 100 µM (inactive),39.4 µM (inactive),14.8 µM (inactive),31.3 µM (inactive),29.9 µM (inactive),56.9 µM (inactive),> 100 µM (inactive),> 100 µM (inactive),43 µM (inactive),> 100 µM,8.15 µM (inactive),> 100 µM (inactive),–,55.1 µM (inactive),2.05 µM (inactive)
